Measured values from patent US20260345574A1, “POTENT AND SELECTIVE IRREVERSIBLE INHIBITORS OF IRAK1” (Dana-Farber Cancer Institute, Inc., priority 2022, published 2026).

What was measured:
[1] = target: IRAK1 (Homo sapiens, UniProt P51617); experiment: Adapta Universal Kinase Assay (ThermoFisher) against IRAK1; format: biochemical; details: Histone H3 (1-20) peptide substrate, 60 minutes at room temperature
Method: To measure the IC50 values of the compounds herein against IRAK1, the Adapta Universal Kinase Assay (ThermoFisher) was used. Briefly, 100 nL of different concentrations of the compounds in 100% DMSO were added to each well of a 384-well plate (Corning Cat. #4512). 2.4 μL of 30 mM HEPES, 2.5 μL of 4× ATP solution (in water), and 5 μL of 2× IRAK1/Histone H3 (1-20) peptide mixture (prepared in 50 mM HEPES pH 7.5, 0.01% BRIJ-35, 10 mM MgCl2, 1 mM EGTA) were added to each well. The plate was shaken for 30 seconds and centrifuged for 1 minute at 1000×g. The plate was then incubated at room temperature for 60 minutes. 5 μL of Detection Mix was added to each well. The plate was shaken for 30 seconds and centrifuged for 1 minute at 1000×g. The plate was then incubated at room temperature for 60 minutes. The plate was subsequently read on a fluorescence plate reader, and the emissions ratio was calculated to determine the ratio of ATP to ADP. Emissions Ratio=AF647 Emission (665 nm)/Europium Emission (615 nm).

[2] = target: T1, IRAK4 (Homo sapiens, UniProt Q9NWZ3); experiment: Z'-LYTE assay (ThermoFisher) against IRAK4; format: biochemical; details: Ser/Thr 07 substrate, 60 minutes at room temperature
T1 sequence (Q9NWZ3 1-460): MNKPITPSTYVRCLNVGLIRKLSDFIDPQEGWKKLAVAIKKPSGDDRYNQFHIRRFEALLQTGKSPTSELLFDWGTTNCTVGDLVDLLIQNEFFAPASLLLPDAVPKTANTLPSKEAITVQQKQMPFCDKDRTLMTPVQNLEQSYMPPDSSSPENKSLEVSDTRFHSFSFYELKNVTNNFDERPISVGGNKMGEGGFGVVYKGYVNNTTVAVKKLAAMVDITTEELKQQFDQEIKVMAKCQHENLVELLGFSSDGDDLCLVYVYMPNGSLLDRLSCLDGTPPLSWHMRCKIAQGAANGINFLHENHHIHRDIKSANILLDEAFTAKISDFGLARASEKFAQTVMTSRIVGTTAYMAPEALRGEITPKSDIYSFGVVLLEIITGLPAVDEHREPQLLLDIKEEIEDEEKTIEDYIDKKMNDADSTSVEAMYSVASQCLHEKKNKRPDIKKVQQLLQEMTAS
Method: To measure the IC50 values of compounds herein against IRAK4, a Z′-LYTE assay (ThermoFisher) was used. Briefly, 2.5 μL of different concentrations of the compounds in 1% DMSO were added to 2.4 μL kinase buffer (50 mM HEPES pH 7.5, 0.01% BRIJ-35, 10 mM MgCl2, 1 mM EGTA) in each well of a 384-well plate (Corning Cat. #3676). 5 μL of 2× IRAK4/Ser/Thr 07 mixture (prepared in 50 mM HEPES pH 7.5, 0.01% BRIJ-35, 10 mM MnCl2, 2 mM DTT, and 0.02% NaN3) and 2.5 μL of 4× ATP solution (4× ATP, 50 mM HEPES, pH 7.5, 0.01% BRIJ-35, 10 mM MgCl2, 1 mM EGTA) were added to each well. The plate was shaken for 30 seconds, and then incubated at room temperature for 60 minutes. 5 μL of a 1:100000 dilution of Development Reagent A was added to each well. The plate was shaken for 30 seconds and incubated for 60 minutes at room temperature. The plate was subsequently read on a fluorescence plate reader, and the emissions ratio was calculated to determine the ratio of Ser/Thr 07 phosphorylated by the reaction. Emissions Ratio=Coumarin Emission (443 nm)/Flourescein Emission (520 nm).

Chain of IRAK1 (P51617 whole entry): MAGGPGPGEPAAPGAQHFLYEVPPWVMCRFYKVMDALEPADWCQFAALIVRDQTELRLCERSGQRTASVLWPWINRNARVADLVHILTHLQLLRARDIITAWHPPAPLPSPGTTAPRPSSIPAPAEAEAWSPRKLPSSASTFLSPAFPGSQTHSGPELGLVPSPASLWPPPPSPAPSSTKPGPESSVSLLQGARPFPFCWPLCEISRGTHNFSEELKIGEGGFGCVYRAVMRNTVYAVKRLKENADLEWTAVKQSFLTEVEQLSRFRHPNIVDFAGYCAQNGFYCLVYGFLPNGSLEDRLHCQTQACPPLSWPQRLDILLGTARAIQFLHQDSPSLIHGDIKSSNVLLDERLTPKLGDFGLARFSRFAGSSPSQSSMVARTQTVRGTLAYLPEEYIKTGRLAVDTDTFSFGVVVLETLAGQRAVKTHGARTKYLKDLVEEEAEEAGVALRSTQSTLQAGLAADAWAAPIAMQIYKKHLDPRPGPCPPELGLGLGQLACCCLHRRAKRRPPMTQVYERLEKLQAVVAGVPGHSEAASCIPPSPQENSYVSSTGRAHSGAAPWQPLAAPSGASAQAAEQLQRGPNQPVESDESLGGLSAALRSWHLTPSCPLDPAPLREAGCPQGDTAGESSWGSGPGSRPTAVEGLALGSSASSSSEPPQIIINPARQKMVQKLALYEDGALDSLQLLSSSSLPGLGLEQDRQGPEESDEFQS

| SMILES | IC50 [1] [nM] | IC50 [2] [nM] |
| --- | --- | --- |
| C=CC(=O)N1CCC[C@H](c2nnc(-c3ccc(NC(=O)c4cccc(-c5ccn[nH]5)n4)nc3)o2)C1 [Compound 005, (S)-N-(5-(5-(1-acryloylpiperidin-3-yl)-1,3,4-oxadiazol-2-yl)pyridin-2-yl)-6-(1H-pyrazol-5-yl)picolinamide] | 96.1 | 9340 |
| C=CC(=O)N1CCC[C@H](c2nc(-c3ccc(NC(=O)c4cccc(-c5ccn[nH]5)n4)c(F)c3)no2)C1 [Compound 076, (S)-N-(4-(5-(1-acryloylpiperidin-3-yl)-1,2,4-oxadiazol-3-yl)-2-fluorophenyl)-6-(1H-pyrazol-5-yl)picolinamide] | 16.4 | > 10000 |
| C=CC(=O)N1C[C@@H](c2nc(-c3ccc(NC(=O)c4cccc(-c5ccn[nH]5)n4)nc3)no2)CC(F)(F)C1 [Compound 063] | 14.8 | > 10000 |
| C=CC(=O)N1CC(c2nc(-c3ccc(NC(=O)c4cccc(-c5[nH]ncc5Cl)n4)nc3)no2)CC(F)(F)C1 (centres unmarked) [Compound 008, N-(5-(5-(1-acryloyl-5,5-difluoropiperidin-3-yl)-1,2,4-oxadiazol-3-yl)pyridin-2-yl)-6-(4-chloro-1H-pyrazol-5-yl)picolinamide] | 5.11 | > 10000 |
| C=CC(=O)N1CCC[C@H](c2nc(-c3ccc(NC(=O)c4cccc(-c5ccn[nH]5)n4)cn3)no2)C1 [Compound 061, (S)-N-(6-(5-(1-acryloylpiperidin-3-yl)-1,2,4-oxadiazol-3-yl)pyridin-3-yl)-6-(1H-pyrazol-5-yl)picolinamide] | 84.3 | > 10000 |
| C=CC(=O)N1CCC[C@H](c2nc(-c3ccc(NC(=O)c4cccc(-c5ccn[nH]5)n4)nc3)no2)C1 [Compound 001, (S)-N-(5-(5-(1-acryloylpiperidin-3-yl)-1,2,4-oxadiazol-3-yl)pyridin-2-yl)-6-(1H-pyrazol-5-yl)picolinamide] | 19.8 | > 10000 |
| C=CC(=O)N1CCC[C@H](C(=O)Nc2ccc(-c3nnc(-c4cccc(-c5ccn[nH]5)n4)[nH]3)nc2)C1 [Compound 018] | 3.95 | 125 |
| C=CC(=O)N1CCC[C@H](C(=O)Nc2ccc(-c3nnc(-c4cccc(-c5ccn[nH]5)n4)o3)nc2)C1 [Compound 019] | 5 | 331 |
| C=CC(=O)N1C[C@@H](c2nc(-c3ccc(NC(=O)c4cccc(-c5ccn[nH]5)n4)nc3)no2)C[C@@H](C(F)(F)F)C1 [Compound 062] | 94.2 | > 10000 |
| C=CC(=O)N1CCC[C@H](C(=O)Nc2ccc(Nc3n[nH]c4ccc(-c5ccn[nH]5)nc34)cc2)C1 [Compound 026] | 6.86 | 365 |
| C=CC(=O)N1C[C@@H](c2nc(-c3ccc(NC(=O)c4cccc(-c5ccn[nH]5)n4)cc3)no2)C[C@@H](C(F)(F)F)C1 [Compound 078] | 521 | > 10000 |
| C=CC(=O)N1CCC[C@H](c2nc(-c3ccc(NC(=O)c4cccc(-c5[nH]ncc5C)n4)nc3)no2)C1 [Compound 006, (S)-N-(5-(5-(1-acryloylpiperidin-3-yl)-1,2,4-oxadiazol-3-yl)pyridin-2-yl)-6-(4-methyl-1H-pyrazol-5-yl)picolinamide] | 8.21 | > 10000 |
| C=CC(=O)N1CCC[C@H](C(=O)Nc2ccc(NC(=O)c3csc(-c4ccn[nH]4)n3)nc2)C1 [Compound 068, (S)-N-(5-(1-acryloylpiperidine-3-carboxamido)pyridin-2-yl)-2-(1H-pyrazol-5-yl)thiazole-4-carboxamide] | 324 | 5760 |
| C=CC(=O)N1CC2CC1[C@@H](c1nc(-c3ccc(NC(=O)c4cccc(-c5[nH]ncc5C)n4)nc3)no1)C2 (stereo partly drawn) [Compound 010, N-(5-(5-((6S)-2-acryloyl-2-azabicyclo[2.2.1]heptan-6-yl)-1,2,4-oxadiazol-3-yl)pyridin-2-yl)-6-(4-methyl-1H-pyrazol-5-yl)picolinamide] | 5.11 | > 10000 |
| C=CC(=O)N1CCC[C@H](C(=O)Nc2ccc(-c3nc(-c4cccc(-c5ccn[nH]5)n4)no3)nc2)C1 [Compound 020] | 2.6 | 333 |
| C=CC(=O)N1CC(c2nc(-c3ccc(NC(=O)c4cccc(-c5ccn[nH]5)n4)nc3)no2)CC(F)(F)C1 (centres unmarked) [Compound 002, N-(5-(5-(1-acryloyl-5,5-difluoropiperidin-3-yl)-1,2,4-oxadiazol-3-yl)pyridin-2-yl)-6-(1H-pyrazol-5-yl)picolinamide] | 6.42 | > 10000 |
| C=CC(=O)N1CC2(CC(c3nc(-c4ccc(NC(=O)c5cccc(-c6ccn[nH]6)n5)cc4)no3)C2)C1 [Compound 077] | – | > 10000 |

More lines, now with the values ahead:

| IC50 [1] [nM] | IC50 [2] [nM] | SMILES |
| --- | --- | --- |
| 8.3 | > 10000 | C=CC(=O)N1CC(c2nc(-c3ccc(NC(=O)c4cccc(-c5[nH]ncc5C)n4)c(F)c3)no2)CC(F)(F)C1 (centres unmarked) [Compound 093, N-(4-(5-(1-acryloyl-5,5-difluoropiperidin-3-yl)-1,2,4-oxadiazol-3-yl)-2-fluorophenyl)-6-(4-methyl-1H-pyrazol-5-yl)picolinamide] |
| 5720 | > 10000 | C=CC(=O)N1CCC[C@H](c2nc(-c3ccc(NC(=O)c4cccc(-c5cc(C#N)n(C)c5)n4)cc3)no2)C1 [Compound 087] |
| 12.7 | > 10000 | C=CC(=O)N1CCC[C@H](c2nc(-c3ccc(NC(=O)c4cccc(-c5[nH]ncc5C)n4)c(F)c3)no2)C1 [Compound 088, (S)-N-(4-(5-(1-acryloylpiperidin-3-yl)-1,2,4-oxadiazol-3-yl)-2-fluorophenyl)-6-(4-methyl-1H-pyrazol-5-yl)picolinamide] |
| 17.6 | > 10000 | C=CC(=O)N1C[C@@H](c2nc(-c3ccc(NC(=O)c4cccc(-c5ccn[nH]5)n4)cc3)no2)CC(F)(F)C1 [Compound 082] |
| 6.82 | 8750 | C=CC(=O)N1CCC[C@H](c2nc(-c3ccc(NC(=O)c4cccc(-c5[nH]ncc5C)n4)cc3)no2)C1 [Compound 085, (S)-N-(4-(5-(1-acryloylpiperidin-3-yl)-1,2,4-oxadiazol-3-yl)phenyl)-6-(4-methyl-1H-pyrazol-5-yl)picolinamide] |
| 1.67 | 204 | C=CC(=O)N1CCC[C@H](c2nc(-c3ccc(NC(=O)c4cccc(-c5ccn[nH]5)n4)c(OC)c3)no2)C1 [Compound 084, (S)-N-(4-(5-(1-acryloylpiperidin-3-yl)-1,2,4-oxadiazol-3-yl)-2-methoxyphenyl)-6-(1H-pyrazol-5-yl)picolinamide] |
| 8.25 | 3620 | C=CC(=O)N1CCC[C@H](c2nc(-c3ccc(NC(=O)c4cccc(-c5ccn[nH]5)n4)c(C(F)(F)F)c3)no2)C1 [Compound 080, (S)-N-(4-(5-(1-acryloylpiperidin-3-yl)-1,2,4-oxadiazol-3-yl)-2-(trifluoromethyl)phenyl)-6-(1H-pyrazol-5-yl)picolinamide] |
| 45.9 | > 10000 | C=CC(=O)N[C@@H]1CNC[C@H](c2nc(-c3ccc(NC(=O)c4cccc(-c5ccn[nH]5)n4)c(F)c3)no2)C1 [Compound 098, N-(4-(5-((3R,5S)-5-acrylamidopiperidin-3-yl)-1,2,4-oxadiazol-3-yl)-2-fluorophenyl)-6-(1H-pyrazol-5-yl)picolinamide] |
| – | 4970 | C=CC(=O)N1CC2(CC(c3nc(-c4ccc(NC(=O)c5cccc(-c6ccn[nH]6)n5)cc4)no3)C2)C1 [Compound 091] |
